Test results published in BindingDB's records for doi:10.1016/j.bmcl.2005.02.084 (Bristol-Myers Squibb Pharmaceutical Research Institute, 2005).

Experiment: Inhibitory concentration in CCR4-transfected murine pre-B L1.2 cells (chemotaxis assay)

IC50: 5 µM
SMILES: CCN(CC)CCCC(C)Nc1nccc(NCc2ccc(Cl)cc2Cl)n1 (stereo unspecified) [N*4*-(2,4-Dichloro-benzyl)-N*2*-(4-diethylamino-1-methyl-butyl)-pyrimidine-2,4-diamine]
